{"source": "patent US20040029965A1", "about": "“Formulations for reducing or eliminating toxicity of enviromental hormones containing ursodeoxycholic acid” (priority 2000, published 2004)", "system": "C57B1/6J mice", "assay": "Hematological changes in mice by a single subcutaneous injection of TCDD", "type": "in vivo", "set-up": "NEU / LYM / PLT: unit not given here", "description": "Male C57B1/6J mice of 5 weeks old having the average weight of 18-22 g which had been bred in CRJ (Charles River in Japan) were purchased and used in this example as experimental animals. Those mice were acclimated under the constant breeding condition, i.e. the temperature of 24±1° C., the humidity of 60±10% and the light and darkness cycle of 12 hours, for one week and thereafter, utilized in the experiment.\n2,3,7,8-tetrachlorodibenzo-p-dioxin (TCDD) dissolved in toluene (purity of 95% or more as a result of gas chromatography analysis), manufactured by Chem. Services Inc. in USA, was volatilized with nitrogen to obtain powder. The obtained powder was dissolved in a mixed solvent containing acetone and corn oil with a volume ratio of 1:6. The resulting solution each containing 110, 27.5 and 6.9 μg/kg of TCDD was subcutaneously injected to mice at a volume of 5 ml per body weight. […] The mice were supplied with the feed from 10 days before (pre-administration) to 60 days after administration of TCDD (post-administration).\nUpon completion of the experiment for 60 days, the experimental animals were fasted for 24 hours and anesthetized with ether. Then, they were abdominally incised and blood was gathered from abdominal vena cava. They were sacrificed by the release of blood. Liver, kidneys, testes and epididymides were extracted and all the extracted organs were weighed. Only the testes were separately kept and observed under optical and electron microscopes. For biochemical finding test, serum was separated from blood with a centrifuge and the separated serum was analyzed with an automated blood biochemical analyzer, Dimension (Dupont, USA). Blood was put to another blood gathering bottle and then, analyzed with an automated blood cell analyzer, Celldyn (Abbott, USA).\nThe results are expressed as Mean±Standard Deviation values. For statistical analysis of the body weight, feed and water uptake, biochemical findings, hematological findings and the weight of organ in an acute toxicity test, verification was performed by one way analysis of variance (ANOVA) in case of equal distribution. In case significance was recognized in ANOVA, the Student's t-test was performed in the levels of p<0.05 and p<0.01.\nFor hematological findings, white blood cell (WBC), neutrophil (NEU), lymphocyte (LYM), monocyte (MONO), eosinophil (EOS), basophil (BASO) and red blood cell (RBC) counts, and hemoglobin concentration (HGB), hematocrit (HCT), mean cell volume (MCV), mean corpuscular hemoglobin (MCH), mean corpuscular hemoglobin concentration (MCHC), red blood cell distribution width (RDW) and platelet count (PLT) were measured and the results are as follows.", "key": {"[1]": {"settings": "TCDD 6.9 μg/kg + UDCA 0.125 wt %"}, "[2]": {"settings": "TCDD 6.9 μg/kg + UDCA 0.25 wt %"}, "[3]": {"settings": "TCDD 27.5 μg/kg + UDCA 0.125 wt %"}, "[4]": {"settings": "TCDD 27.5 μg/kg + UDCA 0.25 wt %"}}, "note": "Marks after values point to notes of the source that are not given here.", "data": [{"compound": "C[C@H](CCC(=O)O)[C@H]1CC[C@H]2[C@@H]3[C@@H](O)C[C@@H]4C[C@H](O)CC[C@]4(C)[C@H]3CC[C@]12C", "note": "[UDCA, 3α, 7β-dihydroxy-5β-cholanoic acid]", "values": [{"measurement": "BASO", "setting": "[1]", "value": "0.12 ± 0.07 10^3"}, {"measurement": "EOS", "setting": "[1]", "value": "0.004 ± 0.005 10^3"}, {"measurement": "HCT", "setting": "[1]", "value": "44.61 ± 1.14", "unit": "%"}, {"measurement": "HGB", "setting": "[1]", "value": "14.35 ± 0.37", "unit": "g/dL"}, {"measurement": "LYM", "setting": "[1]", "value": "5.06 ± 1.70 10^3"}, {"measurement": "MCH", "setting": "[1]", "value": "14.87 ± 0.22", "unit": "pg"}, {"measurement": "MCHC", "setting": "[1]", "value": "32.18 ± 0.43", "unit": "g/dL"}, {"measurement": "MCV", "setting": "[1]", "value": "46.18 ± 0.55", "unit": "fL"}, {"measurement": "MONO", "setting": "[1]", "value": "0.05 ± 0.06 10^3"}, {"measurement": "NEU", "setting": "[1]", "value": "0.32 ± 0.13 10^3"}, {"measurement": "PLT", "setting": "[1]", "value": "1117.7 ± 88.65 10^3"}, {"measurement": "RBC", "setting": "[1]", "value": "9.66 ± 0.24 10^6"}, {"measurement": "RDW", "setting": "[1]", "value": "20.17 ± 1.07", "unit": "%"}, {"measurement": "WBC", "setting": "[1]", "value": "5.55 ± 1.91 10^3"}, {"measurement": "BASO", "setting": "[2]", "value": "0.09 ± 0.04 10^3"}, {"measurement": "EOS", "setting": "[2]", "value": "0.003 ± 0.002 10^3"}, {"measurement": "HCT", "setting": "[2]", "value": "44.77 ± 1.57", "unit": "%"}, {"measurement": "HGB", "setting": "[2]", "value": "14.16 ± 0.44", "unit": "g/dL"}, {"measurement": "LYM", "setting": "[2]", "value": "5.17 ± 1.49 10^3"}, {"measurement": "MCH", "setting": "[2]", "value": "15.04 ± 0.25", "unit": "pg"}, {"measurement": "MCHC", "setting": "[2]", "value": "31.63 ± 0.58", "unit": "g/dL"}, {"measurement": "MCV", "setting": "[2]", "value": "47.56 ± 0.81", "unit": "fL"}, {"measurement": "MONO", "setting": "[2]", "value": "0.04 ± 0.02 10^3"}, {"measurement": "NEU", "setting": "[2]", "value": "0.28 ± 0.07 10^3"}, {"measurement": "PLT", "setting": "[2]", "value": "1141.22 ± 67.79 10^3"}, {"measurement": "RBC", "setting": "[2]", "value": "9.42 ± 0.37 10^6"}, {"measurement": "RDW", "setting": "[2]", "value": "19.73 ± 0.91", "unit": "%"}, {"measurement": "WBC", "setting": "[2]", "value": "5.68 ± 1.50 10^3"}, {"measurement": "BASO", "setting": "TCDD 6.9 μg/kg + UDCA 0.5 wt %", "value": "0.10 ± 0.06 10^3"}, {"measurement": "EOS", "setting": "TCDD 6.9 μg/kg + UDCA 0.5 wt %", "value": "0.002 ± 0.002 10^3"}, {"measurement": "HCT", "setting": "TCDD 6.9 μg/kg + UDCA 0.5 wt %", "value": "45.35 ± 0.93", "unit": "%"}, {"measurement": "HGB", "setting": "TCDD 6.9 μg/kg + UDCA 0.5 wt %", "value": "14.47 ± 0.29", "unit": "g/dL"}, {"measurement": "LYM", "setting": "TCDD 6.9 μg/kg + UDCA 0.5 wt %", "value": "5.12 ± 1.13 10^3"}, {"measurement": "MCH", "setting": "TCDD 6.9 μg/kg + UDCA 0.5 wt %", "value": "14.98 ± 0.19", "unit": "pg"}, {"measurement": "MCHC", "setting": "TCDD 6.9 μg/kg + UDCA 0.5 wt %", "value": "31.87 ± 0.41", "unit": "g/dL"}, {"measurement": "MCV", "setting": "TCDD 6.9 μg/kg + UDCA 0.5 wt %", "value": "47.08 ± 0.63", "unit": "fL"}, {"measurement": "MONO", "setting": "TCDD 6.9 μg/kg + UDCA 0.5 wt %", "value": "0.04 ± 0.03 10^3"}, {"measurement": "NEU", "setting": "TCDD 6.9 μg/kg + UDCA 0.5 wt %", "value": "0.34 ± 0.11 10^3"}, {"measurement": "PLT", "setting": "TCDD 6.9 μg/kg + UDCA 0.5 wt %", "value": "1112.89 ± 76.53 10^3"}, {"measurement": "RBC", "setting": "TCDD 6.9 μg/kg + UDCA 0.5 wt %", "value": "9.64 ± 0.26 10^6"}, {"measurement": "RDW", "setting": "TCDD 6.9 μg/kg + UDCA 0.5 wt %", "value": "20.19 ± 0.72", "unit": "%"}, {"measurement": "WBC", "setting": "TCDD 6.9 μg/kg + UDCA 0.5 wt %", "value": "5.76 ± 1.13 10^3"}, {"measurement": "BASO", "setting": "[3]", "value": "0.09 ± 0.04 10^3"}, {"measurement": "EOS", "setting": "[3]", "value": "0.002 ± 0.003 10^3"}, {"measurement": "HCT", "setting": "[3]", "value": "43.77 ± 1.37", "unit": "%"}, {"measurement": "HGB", "setting": "[3]", "value": "14.64 ± 0.67", "unit": "g/dL"}, {"measurement": "LYM", "setting": "[3]", "value": "2.06 ± 0.81 10^3"}, {"measurement": "MCH", "setting": "[3]", "value": "15.32 ± 0.39", "unit": "pg"}, {"measurement": "MCHC", "setting": "[3]", "value": "33.65 ± 1.04", "unit": "g/dL"}, {"measurement": "MCV", "setting": "[3]", "value": "45.51 ± 0.35", "unit": "fL"}, {"measurement": "MONO", "setting": "[3]", "value": "0.02 ± 0.01 10^3"}, {"measurement": "NEU", "setting": "[3]", "value": "0.34 ± 0.10## 10^3"}, {"measurement": "PLT", "setting": "[3]", "value": "1172.44 ± 80.58## 10^3"}, {"measurement": "RBC", "setting": "[3]", "value": "9.61 ± 0.29 10^6"}, {"measurement": "RDW", "setting": "[3]", "value": "20.08 ± 1.20", "unit": "%"}, {"measurement": "WBC", "setting": "[3]", "value": "3.69 ± 0.72 10^3"}, {"measurement": "BASO", "setting": "[4]", "value": "0.18 ± 0.07 10^3"}, {"measurement": "EOS", "setting": "[4]", "value": "0.008 ± 0.007 10^3"}, {"measurement": "HCT", "setting": "[4]", "value": "43.65 ± 1.24", "unit": "%"}, {"measurement": "HGB", "setting": "[4]", "value": "14.23 ± 0.55", "unit": "g/dL"}, {"measurement": "LYM", "setting": "[4]", "value": "2.99 ± 1.06## 10^3"}, {"measurement": "MCH", "setting": "[4]", "value": "15.01 ± 0.44", "unit": "pg"}, {"measurement": "MCHC", "setting": "[4]", "value": "32.58 ± 0.73", "unit": "g/dL"}]}]}
